Measurements: PubChem BioAssay (NCI)
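In this assay, cells in 96-well plates receive the compound at five concentrations for 48 hours. Endpoints are linearly interpolated between the surrounding concentrations. Here, GI50 denotes the concentration required for 50% inhibition of growth. TGI: total growth inhibition.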

How the values were obtained:
Experiment in all cases: NCI-60 cell line screen, 48 h
UACC-62 melanoma = tested on: UACC-62 melanoma
HOP-92 NSCLC = tested on: HOP-92 NSCLC
SNB-19 CNS = tested on: SNB-19 CNS
SR leukemia = tested on: SR leukemia
TK-10 renal = tested on: TK-10 renal
MOLT-4 leukemia = tested on: MOLT-4 leukemia
T-47D breast = tested on: T-47D breast
HOP-62 NSCLC = tested on: HOP-62 NSCLC
OVCAR-3 ovarian = tested on: OVCAR-3 ovarian
HT29 colon = tested on: HT29 colon
OVCAR-8 ovarian = tested on: OVCAR-8 ovarian
A549 NSCLC = tested on: A549 NSCLC
NCI-H226 lung = tested on: NCI-H226 lung
NCI/ADR-RES ovarian = tested on: NCI/ADR-RES ovarian
SK-MEL-2 melanoma = tested on: SK-MEL-2 melanoma
SF-268 CNS = tested on: SF-268 CNS
K-562 leukemia = tested on: K-562 leukemia
SNB-75 CNS = tested on: SNB-75 CNS
SF-295 CNS = tested on: SF-295 CNS
M14 melanoma = tested on: M14 melanoma
786-0 renal = tested on: 786-0 renal
SF-539 CNS = tested on: SF-539 CNS
SK-OV-3 ovarian = tested on: SK-OV-3 ovarian
OVCAR-5 ovarian = tested on: OVCAR-5 ovarian
HS 578T breast = tested on: HS 578T breast
OVCAR-4 ovarian = tested on: OVCAR-4 ovarian
DU-145 prostate = tested on: DU-145 prostate
U251 CNS = tested on: U251 CNS
MCF7 breast = tested on: MCF7 breast
KM12 colon = tested on: KM12 colon
A498 renal = tested on: A498 renal
HCC-2998 colon = tested on: HCC-2998 colon
CAKI-1 renal = tested on: CAKI-1 renal
PC-3 prostate = tested on: PC-3 prostate
RPMI-8226 leukemia = tested on: RPMI-8226 leukemia
UACC-257 melanoma = tested on: UACC-257 melanoma
LOX IMVI melanoma = tested on: LOX IMVI melanoma
MDA-MB-435 = tested on: MDA-MB-435
CCRF-CEM leukemia = tested on: CCRF-CEM leukemia
SN12C renal = tested on: SN12C renal
NCI-H23 lung = tested on: NCI-H23 lung
SW-620 colon = tested on: SW-620 colon
RXF 393 renal = tested on: RXF 393 renal
NCI-H460 lung = tested on: NCI-H460 lung
MDA-MB-231 breast = tested on: MDA-MB-231 breast
SK-MEL-5 melanoma = tested on: SK-MEL-5 melanoma
COLO 205 colon = tested on: COLO 205 colon

With `COC(=O)c1ccc(NC2=C(Cl)C(=O)C(C)=C(C)C2=O)cc1` as the molecule, how does the GI50 (UACC-62 melanoma) read?
Its GI50 is 1.77 µM.

What about the TGI (UACC-62 melanoma) of the same molecule?
The TGI was 5.53 µM.

What about the GI50 (HOP-92 NSCLC) of the same molecule?
The GI50 was 1.46 µM.

And the TGI (HOP-92 NSCLC)?
The TGI was 3.11 µM.

What about the GI50 (SNB-19 CNS) of the same molecule?
Its GI50 is 3.32 µM.

And the TGI (SNB-19 CNS)?
The TGI was over 100 µM.

What about the GI50 (SR leukemia) of the same molecule?
The GI50 was 1.22 µM.

What about the TGI (SR leukemia) of the same molecule?
Its TGI is 4.02 µM.

And the GI50 (TK-10 renal)?
The GI50 was over 100 µM.

What about the TGI (TK-10 renal) of the same molecule?
Its TGI is over 100 µM.

What about the GI50 (MOLT-4 leukemia) of the same molecule?
Its GI50 is 1.43 µM.

What about the TGI (MOLT-4 leukemia) of the same molecule?
Its TGI is 5.13 µM.

What about the GI50 (T-47D breast) of the same molecule?
Its GI50 is 1.74 µM.

What about the TGI (T-47D breast) of the same molecule?
Its TGI is 4.72 µM.

What about the GI50 (HOP-62 NSCLC) of the same molecule?
The GI50 was 5.52 µM.

What about the TGI (HOP-62 NSCLC) of the same molecule?
The TGI was over 100 µM.

And the GI50 (OVCAR-3 ovarian)?
Its GI50 is 1.81 µM.

And the TGI (OVCAR-3 ovarian)?
The TGI was 3.3 µM.

What about the GI50 (HT29 colon) of the same molecule?
Its GI50 is 6.64 µM.

And the TGI (HT29 colon)?
Its TGI is over 100 µM.

What about the GI50 (OVCAR-8 ovarian) of the same molecule?
The GI50 was 6.89 µM.

And the TGI (OVCAR-8 ovarian)?
The TGI was over 100 µM.

And the GI50 (A549 NSCLC)?
Its GI50 is 5.25 µM.

What about the TGI (A549 NSCLC) of the same molecule?
Its TGI is over 100 µM.

What about the GI50 (NCI-H226 lung) of the same molecule?
Its GI50 is 5.82 µM.

And the TGI (NCI-H226 lung)?
Its TGI is over 100 µM.

What about the GI50 (NCI/ADR-RES ovarian) of the same molecule?
Its GI50 is 2.65 µM.

What about the TGI (NCI/ADR-RES ovarian) of the same molecule?
The TGI was 10.9 µM.

And the GI50 (SK-MEL-2 melanoma)?
The GI50 was 3.2 µM.

And the TGI (SK-MEL-2 melanoma)?
The TGI was over 100 µM.

What about the GI50 (SF-268 CNS) of the same molecule?
The GI50 was 3.79 µM.

And the TGI (SF-268 CNS)?
Its TGI is over 100 µM.

What about the GI50 (K-562 leukemia) of the same molecule?
Its GI50 is 1.58 µM.

And the TGI (K-562 leukemia)?
Its TGI is 5.31 µM.

And the GI50 (SNB-75 CNS)?
Its GI50 is 1.6 µM.

And the TGI (SNB-75 CNS)?
Its TGI is 7.31 µM.

And the GI50 (SF-295 CNS)?
The GI50 was 2.18 µM.

What about the TGI (SF-295 CNS) of the same molecule?
The TGI was 6.64 µM.

What about the GI50 (M14 melanoma) of the same molecule?
The GI50 was 2.84 µM.

What about the TGI (M14 melanoma) of the same molecule?
Its TGI is 40.5 µM.

And the GI50 (786-0 renal)?
The GI50 was 15.1 µM.

What about the TGI (786-0 renal) of the same molecule?
Its TGI is over 100 µM.

What about the GI50 (SF-539 CNS) of the same molecule?
Its GI50 is 2.33 µM.

And the TGI (SF-539 CNS)?
Its TGI is 5.91 µM.

What about the GI50 (SK-OV-3 ovarian) of the same molecule?
The GI50 was 5.13 µM.

What about the TGI (SK-OV-3 ovarian) of the same molecule?
The TGI was over 100 µM.

What about the GI50 (OVCAR-5 ovarian) of the same molecule?
Its GI50 is 6.08 µM.

What about the TGI (OVCAR-5 ovarian) of the same molecule?
Its TGI is over 100 µM.

And the GI50 (HS 578T breast)?
The GI50 was 4 µM.

And the TGI (HS 578T breast)?
Its TGI is 93.8 µM.

And the GI50 (OVCAR-4 ovarian)?
The GI50 was 1.73 µM.

What about the TGI (OVCAR-4 ovarian) of the same molecule?
The TGI was 3.14 µM.

What about the GI50 (DU-145 prostate) of the same molecule?
The GI50 was 11.2 µM.

And the TGI (DU-145 prostate)?
The TGI was over 100 µM.

And the GI50 (U251 CNS)?
Its GI50 is 3.77 µM.

And the TGI (U251 CNS)?
Its TGI is over 100 µM.

What about the GI50 (MCF7 breast) of the same molecule?
The GI50 was 2.66 µM.

And the TGI (MCF7 breast)?
Its TGI is over 100 µM.

What about the GI50 (KM12 colon) of the same molecule?
The GI50 was 2.06 µM.

And the TGI (KM12 colon)?
Its TGI is 4.64 µM.

And the GI50 (A498 renal)?
Its GI50 is 2.06 µM.

What about the TGI (A498 renal) of the same molecule?
Its TGI is 96.7 µM.

And the GI50 (HCC-2998 colon)?
The GI50 was 3.84 µM.

What about the TGI (HCC-2998 colon) of the same molecule?
Its TGI is over 100 µM.

What about the GI50 (CAKI-1 renal) of the same molecule?
The GI50 was 2.95 µM.

And the TGI (CAKI-1 renal)?
Its TGI is over 100 µM.

What about the GI50 (PC-3 prostate) of the same molecule?
Its GI50 is 2.63 µM.

And the TGI (PC-3 prostate)?
The TGI was over 100 µM.

What about the GI50 (RPMI-8226 leukemia) of the same molecule?
The GI50 was 2.19 µM.

What about the TGI (RPMI-8226 leukemia) of the same molecule?
Its TGI is 5.29 µM.

What about the GI50 (UACC-257 melanoma) of the same molecule?
Its GI50 is 3.07 µM.

And the TGI (UACC-257 melanoma)?
The TGI was over 100 µM.

And the GI50 (LOX IMVI melanoma)?
The GI50 was 1.81 µM.

And the TGI (LOX IMVI melanoma)?
Its TGI is 3.41 µM.

And the GI50 (MDA-MB-435)?
The GI50 was 1.84 µM.

What about the TGI (MDA-MB-435) of the same molecule?
Its TGI is 8.73 µM.

And the GI50 (CCRF-CEM leukemia)?
The GI50 was 1.08 µM.

What about the TGI (CCRF-CEM leukemia) of the same molecule?
Its TGI is 4.98 µM.

And the GI50 (SN12C renal)?
The GI50 was 9.11 µM.

And the TGI (SN12C renal)?
Its TGI is over 100 µM.

What about the GI50 (NCI-H23 lung) of the same molecule?
The GI50 was 3.77 µM.

What about the TGI (NCI-H23 lung) of the same molecule?
Its TGI is over 100 µM.

And the GI50 (SW-620 colon)?
The GI50 was 2.1 µM.

And the TGI (SW-620 colon)?
Its TGI is 4.42 µM.

And the GI50 (RXF 393 renal)?
Its GI50 is 1.75 µM.

What about the TGI (RXF 393 renal) of the same molecule?
Its TGI is 4.25 µM.

What about the GI50 (NCI-H460 lung) of the same molecule?
The GI50 was 4.7 µM.

What about the TGI (NCI-H460 lung) of the same molecule?
Its TGI is over 100 µM.

And the GI50 (MDA-MB-231 breast)?
The GI50 was 2.68 µM.

And the TGI (MDA-MB-231 breast)?
Its TGI is 7.71 µM.

What about the GI50 (SK-MEL-5 melanoma) of the same molecule?
The GI50 was 1.92 µM.

What about the TGI (SK-MEL-5 melanoma) of the same molecule?
The TGI was 4.08 µM.

What about the GI50 (COLO 205 colon) of the same molecule?
Its GI50 is 7.69 µM.

And the TGI (COLO 205 colon)?
Its TGI is over 100 µM.
